Assays:
[1] = target: human phosphoinositide-3 kinase (PI3K) delta (Homo sapiens (Human), UniProt O00329); experiment: PI3K-mediated Akt 1/2 (S473) phosphorylation in Rat-1 cells overexpressing PI3K delta; format: cell-based; conditions: cellular assay, p-AKT(Ser473), read-out: Cell PI3K delta IC50
Protocol: (§1) 2.1 Phosphoinositide-3 kinase (PI3K)-Mediated Akt 1/2 (S473) Phosphorylation in Rat-1 Cells
(§2) Rat-1 cells stably overexpressing a myristoylated form of the catalytic subunit of human phosphoinositide-3 kinase (PI3K) alpha, beta or delta were plated in 384-well plates at a density of 7500 (PI3K alpha), 6200 (PI3K beta), or 4000 (PI3K delta) cells in 30 ul complete growth medium (Dulbecco's modified Eagle's medium (DMEM high glucose) supplemented with 10% (v/v) fetal bovine serum, 1% (v/v) MEM non essential amino acids, 10 mM HEPES, 2 mM L-glutamine, 10 μg/mL puromycin and 1% (v/v) Penicillin/Streptomycin) and were incubated at […]/5% CO2/95% humidity for 24 h. Compounds were diluted in 384-well compound plates (compound master plates), to obtain 8-point serial dilutions for 40 test compounds in 90% DMSO, as well as 4 reference compounds plus 16 high controls and 16 low (inhibited) controls. Predilution plates were prepared by dispensing pipetting 250 nl of compound solutions into 384-well polypropylen plates (daugther plates), using a Hummingwell nanoliter dispenser. Compounds were prediluted by the addition of 49.75 ul complete growth medium. 10 ul of prediluted compound solution were transferred to the cell plate using a 384-well pipettor, resulting in a final DMSO concentration of 0.11%. Cells were incubated for 1 h at […]/5% CO2/95% humidity. The supernatant was removed, the cells were lysed in 20 ul of lysis buffer for AlphaScreen® SureFire® detection.
(§3) For detection of p-AKT(Ser473), the SureFire® p-Akt 1/2 (Ser473) Assay Kit (PerkinElmer, U.S.A.) was used. 5 ul of cell lysate was transferred to 384-well low volume Proxiplates for detection using a 384-well pipettor. Addition of AlphaScreen® SureFire® reagents was done according to the manufacturer's protocol. First, 5 ul of reaction buffer plus activation buffer mix containing AlphaScreen® acceptor beads was added, the plate was sealed, and incubated on a plate shaker for 2 hours at room temperature. Second, 2 ul of dilution buffer containing AlphaScreen® donor beads was added, and the plate was incubated on plate shaker as above for a further 2 hours. The plate was read on an AlphaScreen® compatible plate reader, using standard AlphaScreen® settings. Alternatively, p-AKT(Ser473) was detected with the CisBio HTRF Assay Kit: As positive control, 0.9 mM of 1-(3-(trifluoromethyl)-4-(piperazin-1-yl)phenyl)-8-(6-methoxypyridin-3-yl)-3-methyl-1H-imidazo[4,5-c]quinolin-2(3H)-one maleic acid salt in 90% (v/v) DMSO was added to the compound master plate. For compound testing, the cells were seeded at a density of 4000 (Rat-1_PI3Kdelta), 8000 (Rat-1_PI3Kalpha), or 6500 (Rat-1_PI3Kbeta) cells in 30 ul complete growth medium into 384-well plates, with a plastic surface promoting the adhesion of cells and their growth (assay plates) and were grown at 37° C./5% CO2/90% humidity for 24 h. Some 10 ul of the compound predilutions from the daughter plate were then transferred to the cells. After treatment with compound for 1 h, medium was removed and cells were lysed by the addition of 20 ul lysis buffer supplemented with blocking buffer. Detection of p-AKT(Ser473) was performed with the HTRF pAKT (Ser473) assay kit according to the manufacturer's instructions using 16 ul of cell lysate in a total detection volume of 20 ul.

[2] = target: human phosphoinositide-3 kinase (PI3K) alpha (Homo sapiens (Human), UniProt P42336); experiment: PI3K-mediated Akt 1/2 (S473) phosphorylation in Rat-1 cells overexpressing PI3K alpha; format: cell-based, rat cells expressing human PI3K alpha; conditions: cellular assay, p-AKT(Ser473), read-out: Cell PI3K alpha IC50
Chain of human phosphoinositide-3 kinase (PI3K) alpha (P42336 whole entry): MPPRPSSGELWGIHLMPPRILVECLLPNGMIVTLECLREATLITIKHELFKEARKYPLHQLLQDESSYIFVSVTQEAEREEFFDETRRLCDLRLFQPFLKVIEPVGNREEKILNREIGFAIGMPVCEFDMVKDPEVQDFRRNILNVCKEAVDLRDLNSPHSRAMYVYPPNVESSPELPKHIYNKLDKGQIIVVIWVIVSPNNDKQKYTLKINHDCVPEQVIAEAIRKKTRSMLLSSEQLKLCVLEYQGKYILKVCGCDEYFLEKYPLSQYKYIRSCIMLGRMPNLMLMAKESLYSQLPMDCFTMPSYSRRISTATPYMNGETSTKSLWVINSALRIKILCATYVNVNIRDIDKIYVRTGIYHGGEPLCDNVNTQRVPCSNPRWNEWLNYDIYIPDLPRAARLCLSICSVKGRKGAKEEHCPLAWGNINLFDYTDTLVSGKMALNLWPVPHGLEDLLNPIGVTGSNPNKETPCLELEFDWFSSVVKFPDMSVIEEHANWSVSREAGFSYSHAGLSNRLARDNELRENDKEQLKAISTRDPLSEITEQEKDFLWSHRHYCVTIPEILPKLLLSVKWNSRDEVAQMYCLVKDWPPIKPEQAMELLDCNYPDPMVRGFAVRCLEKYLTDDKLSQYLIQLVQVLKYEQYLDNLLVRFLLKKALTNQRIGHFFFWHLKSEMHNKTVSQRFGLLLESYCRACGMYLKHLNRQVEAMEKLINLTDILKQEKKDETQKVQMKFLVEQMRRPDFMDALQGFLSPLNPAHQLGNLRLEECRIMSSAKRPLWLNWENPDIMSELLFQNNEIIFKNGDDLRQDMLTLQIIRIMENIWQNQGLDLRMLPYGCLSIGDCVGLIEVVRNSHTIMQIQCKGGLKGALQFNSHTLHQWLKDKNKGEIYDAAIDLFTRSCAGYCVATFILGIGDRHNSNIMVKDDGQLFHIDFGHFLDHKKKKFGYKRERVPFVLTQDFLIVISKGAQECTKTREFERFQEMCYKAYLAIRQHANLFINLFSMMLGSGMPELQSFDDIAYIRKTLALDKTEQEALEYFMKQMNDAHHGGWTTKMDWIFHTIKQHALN
Chain of human phosphoinositide-3 kinase (PI3K) alpha (Q63787 whole entry partner): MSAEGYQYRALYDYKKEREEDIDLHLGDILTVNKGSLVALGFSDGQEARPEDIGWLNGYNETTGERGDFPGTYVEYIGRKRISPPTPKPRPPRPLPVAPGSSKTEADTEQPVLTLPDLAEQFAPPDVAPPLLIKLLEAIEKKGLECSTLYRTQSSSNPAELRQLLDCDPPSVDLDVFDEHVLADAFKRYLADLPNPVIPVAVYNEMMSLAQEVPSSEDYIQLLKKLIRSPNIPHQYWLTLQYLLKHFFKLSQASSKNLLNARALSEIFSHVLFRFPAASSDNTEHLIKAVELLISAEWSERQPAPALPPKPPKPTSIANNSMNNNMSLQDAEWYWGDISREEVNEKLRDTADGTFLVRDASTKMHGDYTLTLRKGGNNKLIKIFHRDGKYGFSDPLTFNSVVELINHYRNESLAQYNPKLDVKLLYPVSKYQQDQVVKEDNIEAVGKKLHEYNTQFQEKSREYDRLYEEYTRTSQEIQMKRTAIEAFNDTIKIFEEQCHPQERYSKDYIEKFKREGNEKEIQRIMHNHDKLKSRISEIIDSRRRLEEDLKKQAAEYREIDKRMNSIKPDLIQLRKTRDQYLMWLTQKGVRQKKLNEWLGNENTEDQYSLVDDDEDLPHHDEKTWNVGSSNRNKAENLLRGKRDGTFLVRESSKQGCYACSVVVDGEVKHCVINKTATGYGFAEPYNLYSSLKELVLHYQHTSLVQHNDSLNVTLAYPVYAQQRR
Protocol: as §1, §2, §3

Chain of human phosphoinositide-3 kinase (PI3K) delta (O00329 whole entry): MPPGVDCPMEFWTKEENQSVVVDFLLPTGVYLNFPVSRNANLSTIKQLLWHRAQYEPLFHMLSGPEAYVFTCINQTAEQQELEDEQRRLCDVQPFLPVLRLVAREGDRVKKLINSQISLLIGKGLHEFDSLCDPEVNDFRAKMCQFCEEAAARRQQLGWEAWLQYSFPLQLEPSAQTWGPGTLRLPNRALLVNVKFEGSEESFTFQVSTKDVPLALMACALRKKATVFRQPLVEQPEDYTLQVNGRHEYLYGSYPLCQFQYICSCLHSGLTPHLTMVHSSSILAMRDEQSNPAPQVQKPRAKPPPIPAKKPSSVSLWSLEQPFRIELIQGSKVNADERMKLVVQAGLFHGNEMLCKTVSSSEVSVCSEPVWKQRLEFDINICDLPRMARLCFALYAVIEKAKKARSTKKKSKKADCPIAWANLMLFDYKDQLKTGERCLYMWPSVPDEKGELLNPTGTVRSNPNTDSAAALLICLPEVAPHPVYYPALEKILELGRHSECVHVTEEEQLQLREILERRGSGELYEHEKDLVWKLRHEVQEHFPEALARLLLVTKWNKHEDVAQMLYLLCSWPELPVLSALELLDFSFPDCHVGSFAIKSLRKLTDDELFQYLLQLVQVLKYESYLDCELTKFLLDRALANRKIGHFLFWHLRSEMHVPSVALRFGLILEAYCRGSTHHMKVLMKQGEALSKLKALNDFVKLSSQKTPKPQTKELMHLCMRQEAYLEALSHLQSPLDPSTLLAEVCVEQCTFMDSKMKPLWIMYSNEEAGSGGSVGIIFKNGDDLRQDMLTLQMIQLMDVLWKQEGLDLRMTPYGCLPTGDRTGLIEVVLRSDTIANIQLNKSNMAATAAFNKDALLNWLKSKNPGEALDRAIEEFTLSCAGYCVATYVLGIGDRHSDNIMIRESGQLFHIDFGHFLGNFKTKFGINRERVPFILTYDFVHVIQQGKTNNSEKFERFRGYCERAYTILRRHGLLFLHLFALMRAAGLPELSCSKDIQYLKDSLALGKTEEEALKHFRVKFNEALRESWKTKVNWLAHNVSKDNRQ
Chain of human phosphoinositide-3 kinase (PI3K) delta (Q63787 whole entry partner): as the sequence (Q63787 whole entry partner) above

IC50 [1] | IC50 [2] | SMILES
3 nM | 2200 nM | Cc1nc(N)nc(N2C[C@@H](O)C[C@H]2c2nc3ccc(F)c(-c4cnn(C)c4)c3c(=O)n2-c2ccccc2)c1C#N [Example 1, 2-Amino-4-((2S,4S)-2-(6-fluoro-5-(1-methyl-1H-pyrazol-4-yl)-4-oxo-3-phenyl-3,4-dihydroquinazolin-2-yl)-4-hydroxypyrrolidin-1-yl)-6-methylpyrimidine-5-carbonitrile]
3 nM | 1300 nM | Cn1cc(-c2cccc3nc([C@@H]4CCCN4c4ncnc(N)c4C#N)n(-c4ccccc4)c(=O)c23)cn1 [Example 2, (S)-4-Amino-6-(2-(5-(1-methyl-1H-pyrazol-4-yl)-4-oxo-3-phenyl-3,4-dihydroquinazolin-2-yl)pyrrolidin-1-yl)pyrimidine-5-carbonitrile]
11 nM | 6800 nM | COc1ncc(-c2cccc3nc([C@@H]4CCCN4c4ncnc(N)c4C#N)n(-c4ccccc4)c(=O)c23)cn1 [Example 3, (S)-4-Amino-6-(2-(5-(2-methoxypyrimidin-5-yl)-4-oxo-3-phenyl-3,4-dihydroquinazolin-2-yl)pyrrolidin-1-yl)pyrimidine-5-carbonitrile]
< 3 nM | 2800 nM | COc1ncc(-c2cccc3nc([C@@H]4CCCN4c4nc(N)nc(C)c4C#N)n(-c4ccccc4)c(=O)c23)cn1 [Example 4, (S)-2-Amino-4-(2-(5-(2-methoxypyrimidin-5-yl)-4-oxo-3-phenyl-3,4-dihydroquinazolin-2-yl)pyrrolidin-1-yl)-6-methylpyrimidine-5-carbonitrile]
7 nM | 3000 nM | Cn1cc(-c2c(F)ccc3nc([C@@H]4CCCN4c4ncnc(N)c4C#N)n(-c4ccccc4)c(=O)c23)cn1 [Example 5, (S)-4-Amino-6-(2-(6-fluoro-5-(1-methyl-1H-pyrazol-4-yl)-4-oxo-3-phenyl-3,4-dihydroquinazolin-2-yl)pyrrolidin-1-yl)pyrimidine-5-carbonitrile]
5 nM | 1400 nM | Cc1nc(N)nc(N2CCC[C@H]2c2nc3ccc(F)c(-c4cnn(C)c4)c3c(=O)n2-c2ccccc2)c1C#N [Example 6, (S)-2-Amino-4-(2-(6-fluoro-5-(1-methyl-1H-pyrazol-4-yl)-4-oxo-3-phenyl-3,4-dihydroquinazolin-2-yl)pyrrolidin-1-yl)-6-methylpyrimidine-5-carbonitrile]
9 nM | 4700 nM | COc1ncc(-c2c(F)ccc3nc([C@@H]4C[C@H](O)CN4c4nc(N)nc(C)c4C#N)n(-c4ccccc4)c(=O)c23)cn1 [Example 7, 2-Amino-4-((2S,4S)-2-(6-fluoro-5-(2-methoxypyrimidin-5-yl)-4-oxo-3-phenyl-3,4-dihydroquinazolin-2-yl)-4-hydroxypyrrolidin-1-yl)-6-methylpyrimidine-5-carbonitrile]
6 nM | 3200 nM | Cn1cc(-c2c(F)ccc3nc([C@@H]4C[C@H](O)CN4c4ncnc(N)c4C#N)n(-c4ccccc4)c(=O)c23)cn1 [Example 8, 4-Amino-6-((2S,4S)-2-(6-fluoro-5-(1-methyl-1H-pyrazol-4-yl)-4-oxo-3-phenyl-3,4-dihydroquinazolin-2-yl)-4-hydroxypyrrolidin-1-yl) pyrimidine-5-carbonitrile]
< 3 nM | 670 nM | COc1ncc(-c2c(F)ccc3nc([C@@H]4C[C@H](O)CN4c4nc(N)nc(C)c4C#N)n(-c4ccccc4)c(=O)c23)s1 [Example 9, 2-Amino-4-((2S,4S)-2-(6-fluoro-5-(2-methoxythiazol-5-yl)-4-oxo-3-phenyl-3,4-dihydroquinazolin-2-yl)-4-hydroxypyrrolidin-1-yl)-6-methylpyrimidine-5-carbonitrile]
60 nM | 3900 nM | CO[C@H]1C[C@@H](c2nc3cccc(-c4cnn(C)c4)c3c(=O)n2-c2ccccc2)N(c2nc(N)nc(C)c2C#N)C1 [Example 10, 2-Amino-4-((2S,4S)-4-methoxy-2-(5-(1-methyl-1H-pyrazol-4-yl)-4-oxo-3-phenyl-3,4-dihydroquinazolin-2-yl)pyrrolidin-1-yl)-6-methylpyrimidine-5-carbonitrile]
660 nM | > 10000 nM | CO[C@H]1C[C@@H](c2nc3cccc(-c4cnn(C)c4)c3c(=O)n2-c2ccccc2)N(c2nc(N)nc3[nH]cnc23)C1 [Example 11, 2-((2S,4S)-1-(2-Amino-9H-purin-6-yl)-4-methoxypyrrolidin-2-yl)-5-(1-methyl-1H-pyrazol-4-yl)-3-phenylquinazolin-4(3H)-one]
28 nM | 5900 nM | COc1ncc(-c2cccc3nc([C@@H]4C[C@H](OC)CN4c4nc(N)nc(C)c4C#N)n(-c4ccccc4)c(=O)c23)cn1 [Example 12, 2-Amino-4-((2S,4S)-4-methoxy-2-(5-(2-methoxypyrimidin-5-yl)-4-oxo-3-phenyl-3,4-dihydroquinazolin-2-yl)pyrrolidin-1-yl)-6-methylpyrimidine-5-carbonitrile]
12 nM | 1100 nM | Cc1nc(N)nc(N2CCC[C@H]2c2nc3cccc(-c4cnn(C)c4)c3c(=O)n2-c2ccccc2)c1C#N [Example 13, (S)-2-Amino-4-methyl-6-(2-(5-(1-methyl-1H-pyrazol-4-yl)-4-oxo-3-phenyl-3,4-dihydroquinazolin-2-yl)pyrrolidin-1-yl)pyrimidine-5-carbonitrile]
8 nM | 3300 nM | Cc1ccccc1-n1c([C@@H]2CCCN2c2ncnc(N)c2C#N)nc2cccc(-c3cnn(C)c3)c2c1=O [Example 14, (S)-4-Amino-6-(2-(5-(1-methyl-1H-pyrazol-4-yl)-4-oxo-3-(otolyl)-3,4-dihydroquinazolin-2-yl)pyrrolidin-1-yl)pyrimidine-5-carbonitrile]
5400 nM | > 10000 nM | Cn1cnc(-c2cccc3nc([C@@H]4CCCN4c4ncnc(N)c4C#N)n(-c4ccccc4)c(=O)c23)c1 [Example 15, (S)-4-Amino-6-(2-(5-(1-methyl-1H-imidazol-4-yl)-4-oxo-3-phenyl-3,4-dihydroquinazolin-2-yl)pyrrolidin-1-yl)pyrimidine-5-carbonitrile]
8 nM | 2700 nM | Cc1nc(N)nc(N2C[C@@H](O)C[C@H]2c2nc3cccc(-c4cnn(C)c4)c3c(=O)n2-c2ccccc2)c1C#N [Example 16, 2-Amino-4-((2S,4S)-4-hydroxy-2-(5-(1-methyl-1H-pyrazol-4-yl)-4-oxo-3-phenyl-3,4-dihydroquinazolin-2-yl)pyrrolidin-1-yl)-6-methylpyrimidine-5-carbonitrile]
< 3 nM | 5800 nM | Cc1nc(N)nc(N2CCC[C@H]2c2nc3cccc(-c4cncnc4)c3c(=O)n2-c2ccccc2)c1C#N [Example 17, (S)-2-Amino-4-methyl-6-(2-(4-oxo-3-phenyl-5-(pyrimidin-5-yl)-3,4-dihydroquinazolin-2-yl)pyrrolidin-1-yl)pyrimidine-5-carbonitrile]
< 3 nM | 420 nM | COc1cncc(-c2cccc3nc([C@@H]4CCCN4c4nc(N)nc(C)c4C#N)n(-c4ccccc4)c(=O)c23)c1 [Example 18, (S)-2-Amino-4-(2-(5-(5-methoxypyridin-3-yl)-4-oxo-3-phenyl-3,4-dihydroquinazolin-2-yl)pyrrolidin-1-yl)-6-methylpyrimidine-5-carbonitrile]
< 3 nM | 5400 nM | Cc1ncc(-c2cccc3nc([C@@H]4CCCN4c4nc(N)nc(C)c4C#N)n(-c4ccccc4)c(=O)c23)cn1 [Example 19, (S)-2-Amino-4-methyl-6-(2-(5-(2-methylpyrimidin-5-yl)-4-oxo-3-phenyl-3,4-dihydroquinazolin-2-yl)pyrrolidin-1-yl)pyrimidine-5-carbonitrile]

Source: patent US9840498B2, “Substituted quinazolin-4-one derivatives” (NOVARTIS AG, priority 2013, dated 2017)
